Data published in PubChem BioAssay (NCI).
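Results reflect a 48-hour exposure of cells in 96-well plates to compound at five concentrations. Abbreviation: GI50, concentration required for 50% inhibition of growth. TGI is the concentration that stops growth completely.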

Tests used:
Assay in all cases: growth of human tumour cells (NCI), 48 h
[1] = tested on: 786-0 renal
[2] = tested on: A498 renal
[3] = tested on: A549 NSCLC
[4] = tested on: ACHN renal
[5] = tested on: CCRF-CEM leukemia
[6] = tested on: COLO 205 colon
[7] = tested on: DLD-1 colon
[8] = tested on: EKVX NSCLC
[9] = tested on: HCC-2998 colon
[10] = tested on: HCT-116 colon
[11] = tested on: HCT-15 colon
[12] = tested on: HOP-62 NSCLC
[13] = tested on: HOP-92 NSCLC
[14] = tested on: HT29 colon
[15] = tested on: IGROV1 ovarian
[16] = tested on: K-562 leukemia
[17] = tested on: KM12 colon
[18] = tested on: KM20L2 colon
[19] = tested on: LOX IMVI melanoma
[20] = tested on: LXFL 529 NSCLC
[21] = tested on: M14 melanoma
[22] = tested on: MALME-3M melanoma
[23] = tested on: MOLT-4 leukemia
[24] = tested on: NCI-H23 lung
[25] = tested on: NCI-H460 lung
[26] = tested on: NCI-H522 lung
[27] = tested on: OVCAR-3 ovarian
[28] = tested on: OVCAR-4 ovarian
[29] = tested on: OVCAR-5 ovarian
[30] = tested on: OVCAR-8 ovarian
[31] = tested on: RPMI-8226 leukemia
[32] = tested on: SF-268 CNS
[33] = tested on: SF-295 CNS
[34] = tested on: SF-539 CNS
[35] = tested on: SK-MEL-2 melanoma
[36] = tested on: SK-MEL-28 melanoma
[37] = tested on: SK-MEL-5 melanoma
[38] = tested on: SK-OV-3 ovarian
[39] = tested on: SN12C renal
[40] = tested on: SNB-19 CNS
[41] = tested on: SNB-75 CNS
[42] = tested on: SNB-78 CNS
[43] = tested on: SW-620 colon
[44] = tested on: TK-10 renal
[45] = tested on: U251 CNS
[46] = tested on: UACC-257 melanoma
[47] = tested on: UACC-62 melanoma
[48] = tested on: UO-31 renal
[49] = tested on: BT-549 breast
[50] = tested on: CAKI-1 renal
[51] = tested on: DU-145 prostate
[52] = tested on: HL-60(TB) leukemia
[53] = tested on: HS 578T breast
[54] = tested on: MCF7 breast
[55] = tested on: MDA-MB-231 breast
[56] = tested on: MDA-MB-435
[57] = tested on: MDA-N
[58] = tested on: NCI-H226 lung
[59] = tested on: NCI/ADR-RES ovarian
[60] = tested on: PC-3 prostate
[61] = tested on: SR leukemia
[62] = tested on: T-47D breast
[63] = tested on: RXF 393 renal

NCCN.NCCN.O=C([O-])CCl.O=C([O-])CCl.[Co+3].[O-][Cl+3]([O-])([O-])[O-]
GI50 [1]: > 100 µM | TGI [1]: > 100 µM | GI50 [2]: > 100 µM | TGI [2]: > 100 µM | GI50 [3]: > 100 µM | TGI [3]: > 100 µM | GI50 [4]: > 100 µM | TGI [4]: > 100 µM | GI50 [5]: > 100 µM | TGI [5]: > 100 µM | GI50 [6]: > 100 µM | TGI [6]: > 100 µM | GI50 [7]: > 100 µM | TGI [7]: > 100 µM | GI50 [8]: > 100 µM | TGI [8]: > 100 µM | GI50 [9]: > 100 µM | TGI [9]: > 100 µM | GI50 [10]: > 100 µM | TGI [10]: > 100 µM | GI50 [11]: > 100 µM | TGI [11]: > 100 µM | GI50 [12]: > 100 µM | TGI [12]: > 100 µM | GI50 [13]: > 100 µM | TGI [13]: > 100 µM | GI50 [14]: > 100 µM | TGI [14]: > 100 µM | GI50 [15]: > 100 µM | TGI [15]: > 100 µM | GI50 [16]: > 100 µM | TGI [16]: > 100 µM | GI50 [17]: > 100 µM | TGI [17]: > 100 µM | GI50 [18]: > 100 µM | TGI [18]: > 100 µM | GI50 [19]: > 100 µM | TGI [19]: > 100 µM | GI50 [20]: > 100 µM | TGI [20]: > 100 µM | GI50 [21]: > 100 µM | TGI [21]: > 100 µM | GI50 [22]: > 100 µM | TGI [22]: > 100 µM | GI50 [23]: > 100 µM | TGI [23]: > 100 µM | GI50 [24]: > 100 µM | TGI [24]: > 100 µM | GI50 [25]: > 100 µM | TGI [25]: > 100 µM | GI50 [26]: > 100 µM | TGI [26]: > 100 µM | GI50 [27]: > 100 µM | TGI [27]: > 100 µM | GI50 [28]: > 100 µM | TGI [28]: > 100 µM | GI50 [29]: > 100 µM | TGI [29]: > 100 µM | GI50 [30]: > 100 µM | TGI [30]: > 100 µM | GI50 [31]: > 100 µM | TGI [31]: > 100 µM | GI50 [32]: > 100 µM | TGI [32]: > 100 µM | GI50 [33]: > 100 µM | TGI [33]: > 100 µM | GI50 [34]: > 100 µM | TGI [34]: > 100 µM | GI50 [35]: > 100 µM | TGI [35]: > 100 µM | GI50 [36]: > 100 µM | TGI [36]: > 100 µM | GI50 [37]: > 100 µM | TGI [37]: > 100 µM | GI50 [38]: > 100 µM | TGI [38]: > 100 µM | GI50 [39]: > 100 µM | TGI [39]: > 100 µM | GI50 [40]: > 100 µM | TGI [40]: > 100 µM | GI50 [41]: 74.7 µM | TGI [41]: > 100 µM | GI50 [42]: > 100 µM | TGI [42]: > 100 µM | GI50 [43]: > 100 µM | TGI [43]: > 100 µM | GI50 [44]: > 100 µM | TGI [44]: > 100 µM | GI50 [45]: > 100 µM | TGI [45]: > 100 µM | GI50 [46]: > 100 µM | TGI [46]: > 100 µM | GI50 [47]: > 100 µM | TGI [47]: > 100 µM | GI50 [48]: > 100 µM | TGI [48]: > 100 µM

CC1(C)OC(CP(c2ccccc2)c2ccccc2)C(CP(c2ccccc2)c2ccccc2)O1 (stereo not drawn)
TGI [1]: > 100 µM | TGI [2]: > 100 µM | TGI [3]: > 100 µM | GI50 [4]: 2.98 µM | TGI [4]: > 100 µM | TGI [49]: > 100 µM | TGI [50]: > 100 µM | TGI [5]: 45.5 µM | TGI [6]: 2.75 µM | TGI [51]: > 55.5 µM | TGI [8]: > 100 µM | TGI [9]: > 100 µM | TGI [10]: > 100 µM | TGI [11]: > 100 µM | TGI [52]: 1.84 µM | GI50 [12]: 0.56 µM | TGI [12]: > 100 µM | TGI [13]: > 27.7 µM | TGI [53]: > 100 µM | TGI [14]: > 100 µM | TGI [15]: > 100 µM | TGI [16]: > 100 µM | TGI [17]: > 38.1 µM | TGI [19]: > 100 µM | TGI [21]: > 100 µM | TGI [22]: 41.1 µM | TGI [54]: > 100 µM | TGI [55]: > 100 µM | TGI [56]: > 100 µM | TGI [57]: > 28.1 µM | TGI [23]: > 100 µM | TGI [58]: > 100 µM | TGI [24]: > 22.5 µM | TGI [25]: > 100 µM | TGI [26]: > 22.7 µM | TGI [59]: > 100 µM | TGI [27]: > 100 µM | TGI [28]: > 87.3 µM | TGI [29]: 7.73 µM | TGI [30]: > 100 µM | TGI [60]: > 100 µM | GI50 [31]: 2.75 µM | TGI [31]: 14.4 µM | TGI [32]: > 100 µM | TGI [33]: > 100 µM | TGI [34]: > 100 µM | TGI [35]: 10.7 µM | TGI [36]: > 100 µM | TGI [37]: > 26.4 µM | TGI [38]: > 100 µM | TGI [39]: > 100 µM | TGI [40]: > 100 µM | GI50 [41]: 0.865 µM | TGI [41]: 5.33 µM | TGI [61]: > 100 µM | TGI [43]: > 100 µM | GI50 [62]: 0.173 µM | TGI [62]: 0.947 µM | TGI [44]: > 100 µM | TGI [45]: > 100 µM | TGI [46]: > 100 µM | TGI [47]: > 100 µM | GI50 [48]: 2.78 µM | TGI [48]: > 100 µM

C#C[C@]1(O)CC[C@H]2[C@@H]3CCC4=C/C(=N/NC(=O)c5cccc6cc7ccccc7nc56)CC[C@@H]4[C@H]3CC[C@@]21CC
TGI [1]: > 100 µM | TGI [2]: > 100 µM | TGI [3]: > 100 µM | TGI [4]: > 100 µM | TGI [49]: > 100 µM | TGI [50]: > 100 µM | TGI [5]: > 100 µM | TGI [6]: > 100 µM | TGI [51]: > 100 µM | TGI [9]: > 100 µM | TGI [10]: > 100 µM | TGI [11]: > 100 µM | TGI [52]: > 100 µM | TGI [12]: > 100 µM | TGI [13]: > 100 µM | TGI [53]: > 100 µM | TGI [14]: > 100 µM | TGI [15]: > 100 µM | TGI [16]: > 100 µM | TGI [17]: > 100 µM | TGI [19]: > 100 µM | TGI [21]: > 100 µM | TGI [54]: > 100 µM | TGI [55]: > 100 µM | TGI [56]: > 100 µM | TGI [57]: > 100 µM | TGI [23]: > 100 µM | TGI [58]: > 100 µM | TGI [24]: > 100 µM | TGI [25]: > 100 µM | TGI [59]: > 100 µM | TGI [27]: > 100 µM | TGI [28]: > 100 µM | TGI [29]: > 100 µM | TGI [30]: > 100 µM | TGI [60]: > 100 µM | TGI [31]: > 100 µM | TGI [63]: > 100 µM | TGI [32]: > 100 µM | TGI [34]: > 100 µM | TGI [35]: > 100 µM | TGI [36]: > 100 µM | TGI [37]: 63.7 µM | TGI [38]: > 100 µM | TGI [39]: > 100 µM | TGI [40]: > 100 µM | TGI [41]: > 100 µM | TGI [61]: > 100 µM | TGI [43]: > 100 µM | TGI [62]: 66.2 µM | TGI [45]: > 100 µM | TGI [46]: > 100 µM | TGI [47]: > 100 µM
